Read-outs that look alike come from different tables or passages of the source.
Tests used:
[1] = system: PMA-stimulated P90RSK(Ser380) phosphorylation in HepG2 cells; assay: Cellular P90RSK(Ser380) Phosphorylation Assay; type: cell-based; conditions: Homo sapiens, 1.5 hour compound incubation, PMA 100 ng/mL
Experimental: Cellular P90RSK(Ser380) Phosphorylation Assay
Inhibition of PMA-stimulated P90RSK(Ser380) phosphorylation was determined by the following in vitro cellular mechanistic assay, which comprises incubating cells with a compound for 1.5 hours and quantifying fluorescent pP90RSK(Ser380) signal on fixed cells and normalizing to GAPDH signal.
Materials and Methods: HepG2 cells were obtained from ATCC and grown in DMEM supplemented with 10% fetal bovine serum. Cells were plated in 96-well plates at 35,000 cells/well and allowed to attach overnight at 37° C./5% CO2. Diluted compounds were then added at a final concentration of 0.5% DMSO. After 1.5 hour compound incubation, cells were stimulated with the addition of PMA (phorbol 12-myristate 13-acetate) at a final concentration of 100 ng/mL; the PMA stimulation was a 30-minute incubation at 37° C./5% CO2. After the 30-minute PMA stimulation, cells were washed with PBS and fixed in 3.7% formaldehyde in PBS at room temperature for 15-20 minutes. This was followed by another wash in PBS and then permeabilization in 100% MeOH at room temperature for 10-15 minutes. Following the permeabilization incubation, cells were washed in PBS/0.05% Tween-20, followed by a block in Odyssey blocking buffer (LI-COR Biosciences) for at least 1 hour. […] Both secondary antibodies were used at a 1:1000 dilution. Cells were then washed and analyzed for fluorescence at both wavelengths using the Odyssey Infrared Imaging System (LI-COR Biosciences). Phosphorylated P90RSK(Ser380) signal was normalized to GAPDH signal.

[2] = molecular target: human ERK-2 (Mitogen Activated Kinase 1) (Homo sapiens (Human), UniProt P28482); assay: ERK-2 Enzymatic Assay; type: biochemical
Experimental: Compounds were tested in an enzymatic assay using human ERK-2 (Mitogen Activated Kinase 1), recombinantly expressed as an n-terminal 6-His fusion protein in E. coli and corresponding to a 8-360. The substrate used was the fluorescent Omnia peptide S/T17 (Invitrogen of Carlsbad, Calif.; Cat. KNZ1171C). Test compounds were diluted in DMSO in 3-fold serial dilutions at 100× final concentrations. […] The assay was run at ambient temperature in a white 384-well polypropylene plate (Nunc, Inc of Naperville, Ill.; Cat. 267462) collecting data every 50 seconds for approximately 30 minutes on an Envision plate reader (PerkinElmer, Inc. of Waltham, Mass.); Excitation 340 nm/Emission 495 nm. The data collected from each well was fit to a straight line, and the resulting rates were used to calculate percent of control. Percent of control was plotted against compound concentration, and IC50 values were determined using a four-parameter fit. Representative data is in TABLE 3 (infra).

[3] = 25 uM ATP, Omnia peptide S/T17, read-out: Erk Enzymatic Assay IC50

human ERK-2 (Mitogen Activated Kinase 1), sequence (P28482 8-360): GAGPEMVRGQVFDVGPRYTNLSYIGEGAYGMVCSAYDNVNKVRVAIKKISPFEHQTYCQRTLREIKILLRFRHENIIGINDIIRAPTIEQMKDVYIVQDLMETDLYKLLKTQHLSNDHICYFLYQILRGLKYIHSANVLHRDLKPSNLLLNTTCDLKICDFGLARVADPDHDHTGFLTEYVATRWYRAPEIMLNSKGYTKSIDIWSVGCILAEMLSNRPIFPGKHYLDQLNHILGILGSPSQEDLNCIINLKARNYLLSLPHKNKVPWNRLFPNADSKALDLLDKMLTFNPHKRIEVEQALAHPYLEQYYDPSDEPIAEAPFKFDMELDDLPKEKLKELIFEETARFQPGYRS

Structure (SMILES)	IC50 [1]	IC50 [2, 3]	IC50 ([2]; read-out: ERK IC50)
COc1ccc([C@H](NC(=O)c2ccc3cnc(NC4CCOCC4)cc3n2)c2cnn(C)c2)cc1F [I-21, (S)—N-((3-Fluoro-4-methoxyphenyl)(1-methyl-1H-pyrazol-4-yl)methyl)-7-(tetrahydro-2H-pyran-4-ylamino)-1,6-naphthyridine-2-carboxamide]	18.7 nM	1.86 nM	–
CC[C@@H](NC(=O)c1ccc2cnc(Nc3cc(C)nn3C)cc2c1)c1ccc(Cl)c(F)c1 [II-46, (R)—N-(1-(4-Chloro-3-fluorophenyl)propyl)-3-(1,3-dimethyl-1H-pyrazol-5-ylamino)isoquinoline-6-carboxamide]	15.7 nM	6.5 nM	–
O=C(N[C@H](CO)c1ccc(Cl)c(F)c1)c1ccc2cnc(NC3CCOCC3)cc2n1 [I-5, 7-(Tetrahydro-pyran-4-ylamino)-[1,6]naphthyridine-2-carboxylic acid [(S)-1-(4-chloro-3-fluoro-phenyl)-2-hydroxy-ethyl]-amide]	16.3 nM	4.04 nM	–
Cn1nccc1Nc1cc2nc(C(=O)N[C@H](CO)c3ccc(Cl)c(F)c3)ccc2cn1 [I-8, 7-(2-Methyl-2H-pyrazol-3-ylamino)-[1,6]naphthyridine-2-carboxylic acid [(S)-1-(4-chloro-3-fluoro-phenyl)-2-hydroxy-ethyl]-amide]	9.84 nM	–	–
CC[C@@H](NC(=O)c1ccc2cnc(NC3CCOCC3)cc2n1)c1ccc(OC)c(F)c1 [I-6, 7-(Tetrahydro-pyran-4-ylamino)-[1,6]naphthyridine-2-carboxylic acid [(R)-1-(3-fluoro-4-methoxy-phenyl)-propyl]-amide]	5.96 nM	2.1 nM	–
O=C(NCCc1ccccc1)c1ccc2cnc(NC3CCOCC3)cc2n1 [I-30, 7-(Tetrahydro-pyran-4-ylamino)-[1,6]naphthyridine-2-carboxylic acid phenethyl-amide]	476 nM	5.95 nM	–
C[C@@H](CO)Nc1cc2cc(C(=O)NCc3cc4c(F)cccc4[nH]3)ccc2cn1 [II-23, 3-((S)-2-Hydroxy-1-methyl-ethylamino)-isoquinoline-6-carboxylic acid (4-fluoro-1H-indol-2-ylmethyl)-amide]	65.1 nM	20.2 nM	–
O=C(NCc1ccc(Cl)c(F)c1)c1ccc2cnc(NC3CCOCC3)cc2n1 [I-11, 7-(Tetrahydro-pyran-4-ylamino)-[1,6]naphthyridine-2-carboxylic acid 4-chloro-3-fluoro-benzylamide]	98.9 nM	3.43 nM	–
COc1ccc([C@H](NC(=O)c2ccc3cnc(N[C@@H](C)CO)cc3n2)c2cnn(C)c2)cc1F [I-24, N—((S)-(3-Fluoro-4-methoxyphenyl)(1-methyl-1H-pyrazol-4-yl)methyl)-7-((S)-1-hydroxypropan-2-ylamino)-1,6-naphthyridine-2-carboxamide]	37.8 nM	1.15 nM	–
COc1ccc([C@@H]2CN(C)C[C@H]2NC(=O)c2ccc3cnc(Nc4cc(C)nn4C)cc3c2)cc1 [II-64, 3-((1,3-dimethyl-1H-pyrazol-5-yl)amino)-N-((3S,4R)-4-(4-methoxyphenyl)-1-methylpyrrolidin-3-yl)isoquinoline-6-carboxamide]	5.47 nM	2.68 nM	–
COc1ccc([C@H](NC(=O)c2ccc3cnc(Nc4cc(C)nn4C)cc3c2)c2cnn(C)c2)cc1F [II-37, (S)-3-(1,3-Dimethyl-1H-pyrazol-5-ylamino)-N-((3-fluoro-4-methoxyphenyl)(1-methyl-1H-pyrazol-4-yl)methyl)isoquinoline-6-carboxamide]	30.4 nM	4.6 nM	–
COc1ccc([C@H](NC(=O)c2ccc3cnc(N[C@@H]4CCOC4)cc3n2)c2cnn(C)c2)cc1F (single isomer, unassigned) [I-53]	–	–	2.75 nM
O=C(N[C@H](CO)c1ccc(Cl)c(F)c1)c1ccc2cnc(NC3CCOCC3)cc2c1 [II-12, 3-(Tetrahydro-pyran-4-ylamino)-isoquinoline-6-carboxylic acid [(S)-1-(4-chloro-3-fluoro-phenyl)-2-hydroxy-ethyl]-amide]	14.8 nM	2.8 nM	–
CC[C@@H](NC(=O)c1ccc2cnc(NC3CCOCC3)cc2c1)c1ccc(Cl)c(F)c1 [II-2, 3-(Tetrahydro-pyran-4-ylamino)-isoquinoline-6-carboxylic acid [(R)-1-(4-chloro-3-fluoro-phenyl)-propyl]-amide]	8.5 nM	2.5 nM	–
COc1ccc([C@H](NC(=O)c2ccc3cnc(N[C@H]4CCOC4)cc3n2)c2cnn(C)c2)cc1F (single isomer, unassigned) [I-52]	–	–	1.27 nM
Cn1cc([C@@H](NC(=O)c2ccc3cnc(Nc4ccnn4C)cc3c2)c2ccc(Cl)c(F)c2)cn1 [II-15, (S)—N-((4-Chloro-3-fluorophenyl)(1-methyl-1H-pyrazol-4-yl)methyl)-3-(1-methyl-1H-pyrazol-5-ylamino)isoquinoline-6-carboxamide]	9.97 nM	2.29 nM	–

From patent US9388171B2, “Serine/threonine kinase inhibitors” (Array BioPharma Inc., priority 2012, dated 2016)
